Measurements taken from patent US20250099369A1, “TOPICAL DELIVERY COMPOSITIONS COMPRISING NON-STEROIDAL ANTI-INFLAMMATORY DRUGS” (Andros Pharmaceuticals Co., LTD., priority 2023, published 2025).

Assay: physchem
Format: physicochemical
Conditions: 25 °C, aqueous buffer, thermodynamic from solid, Diclofenac Solubility
Method: In the aqueous solution containing 1% boric acid, add SPC (0%, 1%, 3%, 5%, 8%, 10%, 13%, 15%, 18%, 20%) and urea (0%, 5%, 10%, 20%, 30%, 40%, 50%) and stir until complete dissolution. A total of 70 sample solutions with different SPC and urea concentrations were obtained.
An excess of diclofenac sodium was added to each set of sample solutions and stirred overnight at 25° C. The sample solution was centrifuged at 12,000 rpm for 5 minutes, and a portion of the supernatant was diluted with appropriate diluent and analyzed by HPLC, to determine the solubility of diclofenac sodium in aqueous solutions containing different concentrations of SPC and urea. The results are presented in Table1.

solubility: 19.7 mg/mL
SMILES: O=C(O)Cc1ccccc1Nc1c(Cl)cccc1Cl [diclofenac sodium]
